Experiments:
HepG2 [1] = assay: relative viability EC50 (midpoint between 100% and the lowest measured viability); higher = less toxic; conditions: 72 h
Caco-2 [2] = assay: as above; conditions: 72 h
Vero E6 [3] = assay: as above; conditions: 72 h
U2OS [4] = assay: as above; conditions: 72 h
Calu-3 [5] = assay: as above; conditions: 72 h
A549-ACE2 [6] = assay: phospholipidosis EC50; higher = less potent phospholipidosis inducer
[7] = tested on: A549-ACE2 infected with SARS-CoV-2; assay: cell count relative to DMSO; higher = less toxic; conditions: 24 h
HepG2 [8] = assay: drug sensitivity score (DSS) for viability; higher = more toxic; extreme values may be limits of the assay; conditions: 72 h
Caco-2 [9] = assay: as above; conditions: 72 h
Vero E6 [10] = assay: as above; conditions: 72 h
U2OS [11] = assay: as above; conditions: 72 h
Calu-3 [12] = assay: as above; conditions: 72 h
[13] = tested on: A549-ACE2 infected with SARS-CoV-2; assay: morphology score (similarity to uninfected cells); higher = more like uninfected cells; conditions: 24 h
HepG2 [14] = assay: cell viability relative to DMSO; higher = less toxic; conditions: 72 h
Caco-2 [15] = assay: as above; conditions: 72 h
Vero E6 [16] = assay: as above; conditions: 72 h
U2OS [17] = assay: as above; conditions: 72 h
Calu-3 [18] = assay: as above; conditions: 72 h
A549-ACE2 [19] = assay: drug-induced phospholipidosis relative to tamoxifen; higher = more phospholipidosis
[20] = tested on: A549-ACE2 infected with SARS-CoV-2; assay: SARS-CoV-2 infection rate relative to DMSO; higher = more infection; conditions: 24 h

Cn1cc(C2=C(c3ccc(Cl)cc3Cl)C(=O)NC2=O)c2ccccc21
Conditions	drug sensitivity score	relative viability EC50 [µM]
Caco-2 [2]	–	> 10
Caco-2 [9]	0	–
Calu-3 [5]	–	> 10
Calu-3 [12]	0	–
HepG2 [1]	–	> 10
HepG2 [8]	0.3	–
U2OS [4]	–	> 10
U2OS [11]	0	–
Vero E6 [3]	–	> 10
Vero E6 [10]	0	–

Conditions	SARS-CoV-2 infection rate [%]	cell count [%]	cell viability [%]	morphology score	phospholipidosis EC50 [µM]
A549-ACE2 [6], 24 h	–	–	–	–	6.83
A549-ACE2 [6], 48 h	–	–	–	–	1.87
A549-ACE2 [6], 72 h	–	–	–	–	3.22
Caco-2 [15], 1 nM	–	–	105	–	–
Caco-2 [15], 10 nM	–	–	99.9	–	–
Caco-2 [15], 100 nM	–	–	92.5	–	–
Caco-2 [15], 1000 nM	–	–	105	–	–
Caco-2 [15], 10000 nM	–	–	93.1	–	–
Calu-3 [18], 1 nM	–	–	113	–	–
Calu-3 [18], 10 nM	–	–	108	–	–
Calu-3 [18], 100 nM	–	–	99.5	–	–
Calu-3 [18], 1000 nM	–	–	122	–	–
Calu-3 [18], 10000 nM	–	–	103	–	–
HepG2 [14], 1 nM	–	–	98.8	–	–
HepG2 [14], 10 nM	–	–	95	–	–
HepG2 [14], 100 nM	–	–	100	–	–
HepG2 [14], 1000 nM	–	–	95.1	–	–
HepG2 [14], 10000 nM	–	–	87.2	–	–
U2OS [17], 1 nM	–	–	100	–	–
U2OS [17], 10 nM	–	–	97.9	–	–
U2OS [17], 100 nM	–	–	97.8	–	–
U2OS [17], 1000 nM	–	–	100	–	–
U2OS [17], 10000 nM	–	–	97.8	–	–
Vero E6 [16], 1 nM	–	–	99.1	–	–
Vero E6 [16], 10 nM	–	–	98	–	–
Vero E6 [16], 100 nM	–	–	98.4	–	–
Vero E6 [16], 1000 nM	–	–	96.2	–	–
Vero E6 [16], 10000 nM	–	–	99.8	–	–
[7], 0.3 µM	–	96	–	–	–
[7], 3 µM	–	94	–	–	–
[7], 10 µM	–	96	–	–	–
[7], 30 µM	–	91	–	–	–
[13], 0.3 µM	–	–	–	-0.36	–
[13], 3 µM	–	–	–	-0.27	–
[13], 10 µM	–	–	–	-0.07	–
[13], 30 µM	–	–	–	-0.09	–
[20], 0.3 µM	109	–	–	–	–
[20], 3 µM	101	–	–	–	–
[20], 10 µM	90	–	–	–	–
[20], 30 µM	91	–	–	–	–

drug-induced phospholipidosis [%], A549-ACE2 [19]
Conditions	0.3 µM	0.833333 µM	3.33333 µM	6.66667 µM	10 µM	30 µM
24 h	3.42	26.9	57	74.1	90.2	107
48 h	4.24	11.7	45.3	55.7	59.6	55.3
72 h	4.76	5.3	35.3	56	56.2	54.6
